pIC50: −log10 of the molar value.
Tests used:
Format in all cases: cell-based
[1] = test system: H3122 cell line (NSCLC, EML4-ALK fusion); assay: Ceritinib sensitivity (IC50) of parental H3122 cell line; conditions: Homo sapiens, NCI-H3122; ALK-positive H3122 parental cell line
Procedure: (§1) In the particular study reported here, resistance to the small molecule ALK inhibitor Ceritinib was studied. The patient-derived cell line H3122 is a NSCLC line with an EML4-ALK fusion, and it is sensitive to Ceritinib. To simulate the clinical development of therapeutic resistance following initial treatment, this cell line was cultured over a period of 6 months with low but increasing doses of Ceritinib. […] These clones were expanded and comprise the cell lines LDKR1-4.
(§2) FIG. 5 is a schematic diagram showing the development of the cell lines. The ALK-positive H3122 cell line, which is sensitive to the ALK inhibitor Ceritinib (ICso=53 nM), was treated with escalating doses of Ceritinib over a period 6 months. Resistant clones LDKR1-4 were obtained with ICso values in a range from 1494 nM to 3897 nM.

[2] = biological target: T1, ALK (Homo sapiens, UniProt Q9UM73); assay: Phosphoproteomic analysis of ALK activity after Ceritinib treatment, resistant cell lines; conditions: LDKR1-4, 300 nM Ceritinib, 24 hours
T1 sequence (Q9UM73 with tags, fused parts or gaps): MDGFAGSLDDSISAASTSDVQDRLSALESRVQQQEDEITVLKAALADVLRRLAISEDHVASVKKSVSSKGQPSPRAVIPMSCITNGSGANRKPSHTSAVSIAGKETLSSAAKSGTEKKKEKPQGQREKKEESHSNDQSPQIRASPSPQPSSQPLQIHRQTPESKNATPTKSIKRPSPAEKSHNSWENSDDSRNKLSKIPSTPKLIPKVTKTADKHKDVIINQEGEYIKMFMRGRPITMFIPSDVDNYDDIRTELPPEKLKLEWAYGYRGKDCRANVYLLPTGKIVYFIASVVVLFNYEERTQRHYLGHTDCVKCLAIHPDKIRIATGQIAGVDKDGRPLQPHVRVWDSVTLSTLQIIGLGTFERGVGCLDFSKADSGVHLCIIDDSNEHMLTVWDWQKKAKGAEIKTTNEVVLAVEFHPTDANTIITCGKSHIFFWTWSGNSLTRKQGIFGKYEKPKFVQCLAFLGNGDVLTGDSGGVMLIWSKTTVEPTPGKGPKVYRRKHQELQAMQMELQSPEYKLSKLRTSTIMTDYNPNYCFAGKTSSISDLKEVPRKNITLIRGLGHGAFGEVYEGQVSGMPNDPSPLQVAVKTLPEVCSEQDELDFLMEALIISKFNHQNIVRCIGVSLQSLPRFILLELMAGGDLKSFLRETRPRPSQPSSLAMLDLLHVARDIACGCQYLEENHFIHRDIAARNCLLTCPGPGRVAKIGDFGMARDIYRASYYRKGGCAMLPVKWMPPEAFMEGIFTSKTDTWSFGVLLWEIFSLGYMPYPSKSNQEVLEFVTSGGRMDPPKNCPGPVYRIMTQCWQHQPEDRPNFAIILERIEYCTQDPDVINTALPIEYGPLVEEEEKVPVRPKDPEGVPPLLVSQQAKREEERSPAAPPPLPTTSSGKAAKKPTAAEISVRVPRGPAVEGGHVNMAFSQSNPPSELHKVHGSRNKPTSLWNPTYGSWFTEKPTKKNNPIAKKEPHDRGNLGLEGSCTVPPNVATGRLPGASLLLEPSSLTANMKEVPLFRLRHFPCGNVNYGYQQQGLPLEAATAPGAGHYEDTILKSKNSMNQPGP
Procedure: (§3) The H3122 parental and LDKR1-4 cell lines were each grown in culture with or without the addition of Ceritinib for 24 hours, and harvested cells were subsequently processed for both proteomic and phosphoproteomic analyses. Specifically, each of the cell lines was cultured in RPMI-1640 media supplemented with 10% FBS, 100 units/mL penicillin, and 100 μg/mL streptomycin. Cells were treated for 24 hours with 300 nM Ceritinib (also known as LDK378). Cells were collected, and the cell pellets were resuspended in mammalian lysis buffer and lysed by passage through a 21 gauge needle. The lysate was centrifuged at 15,000×g for 5 minutes at 4° C., and insoluble debris was discarded.
(§4) The lysates were then prepared for mass spectrometry analysis. Samples were reduced with DTT, alkylated with iodoacetamide, and precipitated with methanol/chloroform. Protein was digested overnight at room temperature with endoproteinase Lys-C(obtained from Wako Chemicals, Richmond, VA) followed by digestion with sequencing-grade trypsin (obtained from Promega Corp., Madison, WI) for 6 hours at 37° C. Samples were quenched with 1% TFA and desalted using Sep-Pak C18 (SPE) cartridges (obtained from Waters Corp., Milford, MA). The peptide concentration of each sample was determined using a BCA assay. […]

[3] = biological target: T1, ALK; assay: Phosphoproteomic analysis of ALK phosphorylation after Ceritinib treatment, parental H3122; conditions: 300 nM Ceritinib, 24 hours
Procedure: as §3, §4

[4] = test system: LDKR1-4 cell lines (Ceritinib-resistant clones of H3122); assay: Ceritinib sensitivity (IC50) of resistant clones LDKR1-4
Procedure: as §1, §2

ALK Thr 1506/Tyr 1507/Ser 1509 phosphorylation, ratio to parental cell line with no drug [3]: decreasing fourfold upon drug treatment | ALK Tyr 1078 phosphorylation, ratio to parental cell line with no drug [3]: decreased upon drug treatment | pIC50 ([4]; Homo sapiens, NCI-H3122, resistant clones LDKR1-4, obtained after 6 months of escalating doses of Ceritinib): 5.41 to 5.83
SMILES: Cc1cc(Nc2ncc(Cl)c(Nc3ccccc3S(=O)(=O)C(C)C)n2)c(OC(C)C)cc1C1CCNCC1 [Ceritinib]
pIC50 [1]: 7.28 | Inhibition of ALK activity in resistant cell lines [2]: continued to be effective at inhibiting ALK activity in at least three of the four resistant cell lines | IC50 of resistant clones relative to parental sensitive cell line ([4]; four single resistant clones LDKR1-4 vs parental H3122): at least twenty times higher
